PubChem BioAssay AID463199 (Broad Institute, 2010)
Activity calls are given as the source filed them.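 How the source made its calls: active means AC50, the dose giving half-maximal effect, exceeds a fixed cutoff for a compound that rescues yeast growth under heat; inactive means the rest, inconclusive results apart.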

Test system: S. cerevisiae Burl-1 ts mutant growth, BacTiter-Glo, 38.5C 24 h
Experiment: restored growth of temperature-sensitive Burl-1 yeast – whole organism, S. cerevisiae, Burl-1 ts mutant, luminescence, counter-screen for SUMOylation pathway inhibitor project, dose response (AID 463199)

Structure (SMILES)	AC50
COc1ccc(C2=NOC(Cn3nc(C(=O)NCc4cccs4)cc3-c3ccccc3)C2)cc1 (stereo not given)	> 42 µM (inactive)
CCOC(=O)CNC(=O)c1cccnc1	> 42 µM (inactive)
Cc1ccc(S(=O)(=O)NN2C(=O)c3ccccc3NC2c2ccccc2F)cc1 (stereo not given)	> 42 µM (inactive)
C/C(=C\C(=O)N1CCc2ccccc21)C(=O)O	> 42 µM (inactive)
CC(C)NC(=O)c1ccccc1-c1ccccc1	> 42 µM (inactive)
COc1cc(/C=N/NC(=S)NCc2ccco2)cc(OC)c1OC	> 42 µM (inactive)
COc1cc2c(cc1OC)CN(S(=O)(=O)c1cccc(F)c1)CC2	> 42 µM (inactive)
O=C(COc1cccc2cccnc12)N1CCc2ccccc21	> 42 µM (inactive)
CCc1ccc(NC(=S)N(Cc2cccc(Br)c2)CC2CCC(C(=O)O)CC2)cc1 (stereo not given)	> 42 µM (inactive)
COC(=O)C1=C(C)NC(C)=C([N+](=O)[O-])C1c1ccccc1C(F)(F)F (stereo not given)	> 42 µM (inactive)
Cc1cccc(N2CCN(CCCNC(=O)c3ccc(NC(=O)C4=CSCCO4)cc3)CC2C)c1 (stereo not given)	> 42 µM (inactive)
COC(=O)N/N=C/c1ccc(-c2ccc(Cl)cc2Cl)o1	> 42 µM (inactive)
CCOC(=O)c1c(C)[nH]c(C(=O)COC(=O)c2ccncc2)c1C	> 42 µM (inactive)
CCN=C1S/C(=C/c2ccc(-c3ccc(F)cc3)o2)C(=O)N1CC	> 42 µM (inactive)
Cc1cnc(=O)[nH]c1SCC(=O)c1ccc(F)cc1	> 42 µM (inactive)
COc1ccc2c(Cl)c(C(=O)NN3CCN(C)CC3)sc2c1	> 42 µM (inactive)
COc1ccc(NC2CCCN(C(=O)CCc3scnc3C)C2)cc1 (stereo not given)	> 42 µM (inactive)
O=C(/C=C/N1CCOCC1)c1coc2ccccc12	> 42 µM (inactive)
Cc1cccc2nc3ccccc3cc12	> 42 µM (inactive)
COC(=O)CN1C(=O)c2cccc3cccc1c23	> 42 µM (inactive)
O=C(CP(=O)(c1ccccc1)c1ccccc1)N1CCOCC1	> 42 µM (inactive)
Cc1ccc(C(=O)NC(Cc2c[nH]c3ccccc23)C(=O)O)o1 (stereo not given)	> 42 µM (inactive)
COc1ccc2c(CC(=O)Nc3ccc(OC)c(NS(=O)(=O)c4ccc(F)cc4)c3)coc2c1	> 42 µM (inactive)
COc1ccc(N2CCN(C(=O)C3CCCN(S(=O)(=O)c4ccc5c(c4)oc(=O)n5C)C3)CC2)cc1 (stereo not given)	> 21 µM (inactive)
O=C(COC(=O)C1CC(=O)N(Cc2ccccc2)C1)Nc1ccccc1F (stereo not given)	> 21 µM (inactive)

Structure (SMILES)	AC50
COC(=O)c1cc(N=Nc2c(C)[nH]c3ccccc23)cc(C(=O)OC)c1	> 42 µM (inactive)
Clc1cc(Br)ccc1OCCOCCN1CCOCC1	> 42 µM (inactive)
O=C(O)CN(c1ccccn1)S(=O)(=O)c1ccc(Cl)cc1	> 42 µM (inactive)
O=C(O)CNS(=O)(=O)Cc1ccccc1	> 42 µM (inactive)
Cc1ccc(S(=O)(=O)N2[C@@H](c3ccccc3)C(C(=O)O)=CC[C@H]2c2ccc(Cl)cc2)cc1	> 42 µM (inactive)
C=C(C)Cn1c(N)cc(=O)nc1SCC(=O)Nc1cccc(C(F)(F)F)c1	> 42 µM (inactive)
Cc1ccc(CNC(=O)CCn2cc(-c3ccc(C)cc3)nc2CCN)cc1	> 42 µM (inactive)
Cc1nc2sc(C(c3ccco3)N3CCOCC3)c(O)n2n1 (stereo not given)	> 42 µM (inactive)
COCC(=O)NNC(=O)c1ccccc1OC	> 42 µM (inactive)
Cc1cc(C)c(NC(=O)Cn2c([N+](=O)[O-])cnc2C)c(C)c1	> 42 µM (inactive)
COCCN1C(=O)/C(=C/c2cc3c(cc2Br)OCO3)NC1=S	> 42 µM (inactive)
CN(C(=O)c1ccncc1)c1nnc(-c2cnccn2)s1	> 42 µM (inactive)
CSc1cccc(N2C(=O)C3CCCN3C2=S)c1 (stereo not given)	> 42 µM (inactive)
CCNC(=S)NNC(=O)c1ccc(=O)n(Cc2ccccc2)c1	> 42 µM (inactive)
CC/C(=N\NC(=O)c1nnn(-c2nonc2N)c1-c1cccs1)c1ccccc1	> 42 µM (inactive)
C[C@@]12C(=O)Nc3ccc(F)cc3C(=O)N1[C@H]1c3cc(Cl)ccc3OC[C@@H]1[C@@H]2c1ccccc1	> 42 µM (inactive)
CC1(C(=O)Nc2cccc(-n3cnnn3)c2)Cc2ccccc2C(=O)O1 (stereo not given)	> 42 µM (inactive)
CCOC(=O)C1CCN(CC(O)COc2ccc(C(C)(C)C)cc2)CC1 (stereo not given)	> 42 µM (inactive)
COc1ccc(C(=O)O)cc1S(=O)(=O)NCCN(C)C	> 42 µM (inactive)
COCCCNC(=O)c1cc(C(=O)c2c(-c3c(Cl)cccc3Cl)noc2C)c[nH]1	> 42 µM (inactive)
CCN(CC)CCNc1ncnc2c1[nH]c1ccc(OC)cc12	> 42 µM (inactive)
C/C(=N\N1CCN(Cc2ccccc2Cl)CC1)c1ccc([N+](=O)[O-])cc1	> 42 µM (inactive)
COc1ccc(-c2cn(-c3ccc(C)cc3)c(=O)n2CC(=O)Nc2ccc(OC)c(OC)c2)cc1	> 42 µM (inactive)
O=C(CCc1ccccc1)NNC(=S)Nc1ccc(F)cc1	> 42 µM (inactive)
COc1ccc([N+](=O)[O-])cc1NC(=O)C1CCCN1S(=O)(=O)c1cccs1 (stereo not given)	> 42 µM (inactive)

Structure (SMILES)	AC50
COc1ccc(N2C(=O)CSC2c2ccc([N+](=O)[O-])cc2)cc1 (stereo not given)	> 42 µM (inactive)
COc1cc(SC)ccc1C(=O)Nc1cc(C)c(OCC(=O)N2CCOCC2)c(C)c1	> 42 µM (inactive)
COC(=O)c1ccccc1NC(=O)CSc1nnnn1CC(=O)O	> 42 µM (inactive)
Cc1ccnc(NC(=O)CNC(=O)c2ccc(Br)o2)c1	> 42 µM (inactive)
O=C(CSc1ncnc2nc[nH]c12)Nc1ccccc1C(F)(F)F	> 42 µM (inactive)
COc1cc(SC)ccc1C(=O)N1CCCCCC1	> 42 µM (inactive)
O=C(CCCC(=O)N/N=C/c1ccccc1C(=O)O)N/N=C/c1ccccc1C(=O)O	> 42 µM (inactive)
CN(C)c1ccc(/C=C/c2cccc[n+]2[O-])cc1	> 42 µM (inactive)
CC(=O)Nc1cccc2c1C(=O)N(c1ccccc1C)C2=O	> 42 µM (inactive)
CCCCCCOc1ccc(N2C(=O)CC(N3CCC(C(=O)OCC)CC3)C2=O)cc1 (stereo not given)	> 42 µM (inactive)
COc1ccccc1N(CC(=O)NCC1CCCO1)C(=O)CCC(=O)Nc1cc(C)on1 (stereo not given)	> 42 µM (inactive)
Cc1c(Cl)cccc1NC(=S)NCCCN(C)C	> 42 µM (inactive)
COc1ccc2c(c1)OC[C@H]1[C@H]2N2C(=O)c3cc(OC)c(OC)cc3NC(=O)[C@@]2(C)[C@H]1c1ccccc1	> 42 µM (inactive)
O=C(Nc1ccc(OC(F)(F)F)cc1)c1ccc2ccccc2n1	> 42 µM (inactive)
COCCNCc1ccccc1	> 42 µM (inactive)
N#CCCN(C(=O)COC(=O)c1ccc(S(=O)(=O)Nc2ccccc2)cc1)c1ccccc1	> 42 µM (inactive)
Cc1csc(=O)n1CC(=O)OCC(=O)Nc1cc([N+](=O)[O-])ccc1Cl	> 42 µM (inactive)
CC(C)C(=O)Nc1cccc(-c2nc3ncccc3o2)c1	> 42 µM (inactive)
Cc1nc(CCNC(=O)c2ccccc2)cs1	> 42 µM (inactive)
CCOC(=O)c1c(C)[nH]c(O)c1C=Nc1ccccc1	> 42 µM (inactive)
COc1ccc(NC(=O)CN2C(=O)c3ccccc3S2(=O)=O)cc1OC	> 42 µM (inactive)
CC1(C)Cc2nc3sc4c(OCc5ccccc5)ncnc4c3cc2CO1	> 42 µM (inactive)
CC(C)N=C(NS(=O)(=O)NC(=O)c1ccccc1)c1ccccc1	> 42 µM (inactive)
NC(=O)c1cc(S(=O)(=O)N2CCCC2)ccc1OCc1ccc(F)cc1	> 42 µM (inactive)
COc1cccc(C2/C(=C(/O)c3ccccc3)C(=O)C(=O)N2Cc2ccco2)c1 (stereo not given)	> 42 µM (inactive)

Structure (SMILES)	AC50
CCOP(=O)(OCC)C(NC(=O)c1cccc([N+](=O)[O-])c1)C(Cl)(Cl)Cl (stereo not given)	> 42 µM (inactive)
CCOC(=O)c1c(N)sc(C(=O)N2CCCC(C(N)=O)C2)c1C (stereo not given)	> 42 µM (inactive)
CC1(C)CC(=O)C2=C(C1)Oc1ncn(CCO)c(=N)c1C2c1ccccc1 (stereo not given)	> 42 µM (inactive)
CN/C(=C/[N+](=O)[O-])NCCSCc1ccc(CN(C)C)o1	> 42 µM (inactive)
COc1ccccc1OCCSc1nc2ccccc2n1CCC(=O)O	> 42 µM (inactive)
CCCNC(=O)Cn1nc(C)n2c(cc3cc(F)ccc32)c1=O	> 42 µM (inactive)
CCCn1c(=O)c2ccccc2n2c(SCC(=O)N3CCc4ccccc4C3)nnc12	> 42 µM (inactive)
CN(C)S(=O)(=O)c1ccc(C(=O)/C=C/c2cccnc2)cc1	> 42 µM (inactive)
COc1cccc(N=Nc2c(=O)[nH]n3c(=O)cc(C)[nH]c23)c1	> 42 µM (inactive)
COc1ccc(CN2C(=O)c3c(c(C)n(C)c3C)C2C(=O)NC2CCC(C)CC2)cc1 (stereo not given)	> 42 µM (inactive)
NC(=O)C1CCN(C2CC(=O)N(c3ccc(F)c(Cl)c3)C2=O)CC1 (stereo not given)	> 42 µM (inactive)
CC(=O)N(C(C)=O)c1c(C#N)c(C)n(-c2ccccc2)c1C(=O)c1ccccc1	> 42 µM (inactive)
N#CCN(N=Nc1ccccc1)c1ccccc1	> 42 µM (inactive)
OC(COc1ccccc1)Cn1c2ccccc2c2ccccc21 (stereo not given)	> 42 µM (inactive)
CCCCn1c(=O)[nH]c(=O)c2c1nc(COc1ccc(C#N)cc1)n2CCC	> 42 µM (inactive)
O=[N+]([O-])c1ccc(N/N=C/c2cccc(O)c2)cc1	> 42 µM (inactive)
OC(c1ccccc1)(C1CCCCC1)C(CN1CCOCC1)c1ccccc1 (stereo not given)	> 42 µM (inactive)
COc1ccc(C)cc1S(=O)(=O)N1CCC(C(=O)NCCc2ccccc2)CC1	> 42 µM (inactive)
O=C(Cc1ccc(F)cc1)Nc1nc(-c2ccc(F)cc2)cs1	> 42 µM (inactive)
Cc1sc2nc(CN3CCCC3)nc(NCc3ccncc3)c2c1C	> 42 µM (inactive)
O=C(Cn1cnc2ccccc2c1=O)c1ccc(OC(F)F)cc1	> 42 µM (inactive)
COc1ccc(NC(=O)c2ccc(-c3csc(C)n3)cc2)cc1	> 42 µM (inactive)
COc1ccccc1CNC(=O)CCC(=O)Nc1nnc(C(C)C)s1	> 42 µM (inactive)
O=C(CC(c1ccccc1)c1ccccc1O)NCCN1CCOCC1 (stereo not given)	> 42 µM (inactive)
Cc1ccccc1NC(=O)COC(=O)C1C2CC3OC(=O)C1C3C2 (stereo not given)	> 42 µM (inactive)
